Test system: hepatocytes
Assay: Seq-Well scRNA-Seq of hepatocytes after APAP overdose (signature scores, DEG vs untreated)
Type: in vivo, mouse
Conditions: A6 vs UT

Structure (SMILES): CC(=O)Nc1ccc(O)cc1 [APAP, acetaminophen]
- Med13 A6logFC: 0.2949
- Med13 avg_logFC: 0.2949
- Med13 pct.1: 0.325
- Megf9 A6logFC: 0.2769
- Megf9 avg_logFC: 0.2769
- Megf9 pct.1: 0.289
- Mettl7b avg_logFC: −0.4527
- Mettl7b pct.1: 0.647
- Mettl20 avg_logFC: −0.3314
- Mettl20 pct.1: 0.119
- Mfsd2a avg_logFC: 0.6661
- Mgea5 A6logFC: 0.3263
- Mgea5 avg_logFC: 0.3263
- Mgea5 pct.1: 0.413
- Mgst1 avg_logFC: −1.06
- Minos1 avg_logFC: −0.4555
- Minos1 pct.1: 0.332
- Mlycd avg_logFC: −0.2909
- Mlycd pct.1: 0.329
- Mmp8 avg_logFC: 0.359
- Mmp14 avg_logFC: 0.2889
- Mmp14 pct.1: 0.253
- Mpc2 avg_logFC: −0.4828
- Mpc2 pct.1: 0.599
- Mpeg1 avg_logFC: 0.4935
- Mpeg1 pct.1: 0.263
- Mrap avg_logFC: 0.8841
- Mrp63 avg_logFC: −0.4422
- Mrp63 pct.1: 0.277
- Mrpl11 A6logFC: −0.2685
- Mrpl15 A6logFC: −0.2912
- Mrpl20 A6logFC: −0.3093
- Mrpl20 avg_logFC: −0.3093
- Mrpl20 pct.1: 0.301
- Mrpl28 A6logFC: −0.2699
- Mrpl28 avg_logFC: −0.2699
- Mrpl28 pct.1: 0.229
- Mrpl33 A6logFC: −0.2654
- Mrpl34 A6logFC: −0.2838
- Mrpl41 A6logFC: −0.2674
- Mrpl42 A6logFC: −0.2845
- Mrps12 A6logFC: −0.2504
- Mrps12 avg_logFC: −0.2504
- Mrps12 pct.1: 0.193
- Mrps24 avg_logFC: −0.3904
- Mrps24 pct.1: 0.31
- Msrb1 avg_logFC: −0.599
- Mt1 avg_logFC: 2.388
- Mt2 avg_logFC: 2.063
- Mthfd2 avg_logFC: 0.2624
- Mug2 avg_logFC: 0.3683
- Mug2 pct.1: 0.776
- Mup3 avg_logFC: −0.7035
- Mup4 avg_logFC: −0.9953
- Mup5 avg_logFC: −1.237
- Mup6 avg_logFC: −1.872
- Mup7 avg_logFC: −0.9414
- Mup8 avg_logFC: −0.7526
- Mup8 pct.1: 0.098
- Mup9 avg_logFC: −2.004
- Mup11 avg_logFC: −3.214
- Mup12 avg_logFC: −1.27
- Mup15 avg_logFC: −1.316
- Mup16 avg_logFC: −1.602
- Mup17 avg_logFC: −2.354
- Mup18 avg_logFC: −1.628
- Mup19 avg_logFC: −2.396
- Mup21 avg_logFC: −0.8272
- Mvd A6logFC: −0.2704
- Mxd1 A6logFC: 0.2978
- Mybbp1a avg_logFC: 0.4312
- Mybbp1a pct.1: 0.396
- Myeov2 A6logFC: −0.3052
- Myeov2 avg_logFC: −0.3052
- Myeov2 pct.1: 0.303
- Myh9 avg_logFC: 1.16
- Myl12a avg_logFC: 0.3908
- Myl12a pct.1: 0.461
- Myo1b A6logFC: 0.2624
- Myo1e avg_logFC: 0.6143
- Naa50 A6logFC: 0.2657
- Naa50 avg_logFC: 0.2657
- Naa50 pct.1: 0.444
- Naprt1 A6logFC: −0.3381
- Nars avg_logFC: 0.4378
- Nars pct.1: 0.606
- Ncl avg_logFC: 0.4845
- Ncl pct.1: 0.69
- Ndufa2 avg_logFC: −0.3965
- Ndufa2 pct.1: 0.492
- Ndufa3 avg_logFC: −0.4116
- Ndufa3 pct.1: 0.344
- Ndufa4 avg_logFC: −0.6831
- Ndufa5 A6logFC: −0.252
- Ndufa5 avg_logFC: −0.252
- Ndufa5 pct.1: 0.418
- Ndufa6 avg_logFC: −0.6136
- Ndufa7 avg_logFC: −0.5559
- Ndufa7 pct.1: 0.406
- Ndufa13 avg_logFC: −0.4388
- Ndufa13 pct.1: 0.549
- Ndufb3 A6logFC: −0.3272
- Ndufb6 avg_logFC: −0.5077
- Ndufb6 pct.1: 0.475
- Ndufb9 avg_logFC: −0.5038
- Ndufb9 pct.1: 0.661
- Ndufb10 A6logFC: −0.3004
- Ndufc2 avg_logFC: −0.4253
- Ndufc2 pct.1: 0.36
- Ndufs4 A6logFC: −0.3132
- Ndufs6 avg_logFC: −0.5379
- Ndufs6 pct.1: 0.482
- Ndufv2 A6logFC: −0.3276
- Ndufv2 avg_logFC: −0.3276
- Ndufv2 pct.1: 0.461
- Neat1 avg_logFC: 0.6374
- Neat1 pct.1: 0.31
- Nek7 A6logFC: 0.2911
- Nek7 avg_logFC: 0.2911
- Nek7 pct.1: 0.394
- Net1 A6logFC: 0.3479
- Nid1 avg_logFC: 0.3426
- Nit2 avg_logFC: −0.4859
- Nit2 pct.1: 0.301
- Nolc1 avg_logFC: 0.4722
- Nolc1 pct.1: 0.363
- Nop56 avg_logFC: 0.2657
- Nop56 pct.1: 0.282
- Nop58 avg_logFC: 0.6634
- Nploc4 A6logFC: 0.2918
- Nploc4 avg_logFC: 0.2918
- Nploc4 pct.1: 0.351
- Nqo2 A6logFC: −0.2678
- Nqo2 avg_logFC: −0.2678
- Nqo2 pct.1: 0.317
- Nr0b2 avg_logFC: −0.293
- Nr0b2 pct.1: 0.086
- Nr1i3 avg_logFC: −0.4127
- Nr1i3 pct.1: 0.165
- Nr2f6 avg_logFC: −0.3754
- Nr2f6 pct.1: 0.234
- Nrip1 avg_logFC: 0.2729
- Nrip1 pct.1: 0.246
- Nucks1 A6logFC: 0.3558
- Nudt4 A6logFC: 0.2542
- Nudt7 avg_logFC: −1.564
- Oaf avg_logFC: −0.7329
- Oat avg_logFC: −1.225
- PM20l1 avg_logFC: 0.3085
- PM20l1 pct.1: 0.372
- Pa2g4 A6logFC: 0.2893
- Pa2g4 avg_logFC: 0.2893
- Pa2g4 pct.1: 0.492
- Pabpc1 avg_logFC: 0.4101
- Pabpc1 pct.1: 0.697
- Pah avg_logFC: −0.5221
- Pak2 avg_logFC: 0.2815
- Pak2 pct.1: 0.308
- Papss2 A6logFC: −0.2545
- Papss2 avg_logFC: −0.2545
- Papss2 pct.1: 0.337
- Paqr9 A6logFC: −0.3323
- Park7 avg_logFC: −0.2602
- Park7 pct.1: 0.601
- Pbld1 avg_logFC: −0.4425
- Pbld1 pct.1: 0.315
- Pcbd1 avg_logFC: −0.6878
- Pck1 avg_logFC: −0.6522
- Pcm1 A6logFC: 0.2654
- Pcm1 avg_logFC: 0.2654
- Pcm1 pct.1: 0.274
- Pde3b A6logFC: −0.259
- Pde3b avg_logFC: −0.259
- Pde3b pct.1: 0.243
- Pdia4 avg_logFC: −0.2719
- Pdia4 pct.1: 0.43
- Pdia6 avg_logFC: −0.39
- Pdia6 pct.1: 0.47
- Pdzd8 A6logFC: 0.2863
- Pdzd8 avg_logFC: 0.2863
- Pdzd8 pct.1: 0.36
- Pecr avg_logFC: −0.3981
- Pecr pct.1: 0.446
- Pet100 A6logFC: −0.28
- Pfkfb2 avg_logFC: 0.29
- Pfkfb2 pct.1: 0.26
- Pgls A6logFC: −0.2747
- Pgls avg_logFC: −0.2747
- Pgls pct.1: 0.22
- Phf20l1 A6logFC: 0.3085
- Phlda1 avg_logFC: 0.5492
- Pi4k2a A6logFC: 0.3536
- Picalm avg_logFC: 0.7545
- Pigr avg_logFC: 0.3487
- Pigr pct.1: 0.947
- Pkp4 A6logFC: 0.323
- Pkp4 avg_logFC: 0.323
- Pkp4 pct.1: 0.401
- Pla2g7 avg_logFC: 0.2823
- Pla2g7 pct.1: 0.119
- Plbd2 A6logFC: 0.2649
- Plbd2 avg_logFC: 0.2649

Reference: patent US20230053540A1, “TREATMENT OF LIVER INJURY” (Massachusetts Institute of Technology, priority 2019, published 2023)
